The melting point is the temperature of the solid-liquid transition. For orientation: IC50 means the concentration that inhibits the measured activity by half.

Structures are written as SMILES.

4 compounds from US8377967B2, “Piperidine derivative” (Nippon Zoki Pharmaceutical Co., Ltd., priority 2008, dated 2013) can be followed below.

For data set [1], the target named is human histamine H1 receptor (Homo sapiens, UniProt P35367). Briefly: In vitro human histamine H1 receptor binding experiment ([3H]pyrilamine). The following applies: HEK293A cells stably expressing human histamine H1 receptor, [3H]pyrilamine 3 nmol/L, room temperature 60 minutes. The gist of the method:
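HEK293A cells stably expressing human H1 receptor (3×10^5 cells/well) incubated 60 min at room temperature with test substance and 3 nmol/L [3H]pyrilamine in 50 mmol/L Tris-HCl pH 7.5, 0.1% BSA. Filtration and scintillation counting; nonspecific binding with 30 μmol/L pyrilamine.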

For data set [2], the system named is histamine-induced vascular hyperpermeability reaction. In words: Rat histamine-induced vascular hyperpermeability reaction (in vivo antihistamine action). The following applies: SD male rat, oral administration 1 hour before intracutaneous histamine, leaked Evans Blue pigment.
The target in the next data set is T1, cerebral H1 receptor (Mus musculus, UniProt P70174).
T1 construct: the entire brain, except for cerebellum and medulla oblongatae, was rapidly excised; from tissue; host or cells: brain homogenate (without cerebellum and medulla oblongata) of orally dosed ICR male mice
Briefly: Murine cerebral H1 receptor occupying content (ex vivo). The format is in vivo. The following applies: for ED50: ICR male mouse, oral administration, brain excised after 1 hour, 3H-pyrilamine binding in brain homogenate, larger = lower brain transfer, read-out: ID50 (the source's name); for ID50 (mg/kg)/ ED50 (mg/kg): ID50 of cerebral receptor binding test (Table 20) divided by ED50 of vascular hyperpermeability test (Table 19).

T1 sequence (P70174 whole entry): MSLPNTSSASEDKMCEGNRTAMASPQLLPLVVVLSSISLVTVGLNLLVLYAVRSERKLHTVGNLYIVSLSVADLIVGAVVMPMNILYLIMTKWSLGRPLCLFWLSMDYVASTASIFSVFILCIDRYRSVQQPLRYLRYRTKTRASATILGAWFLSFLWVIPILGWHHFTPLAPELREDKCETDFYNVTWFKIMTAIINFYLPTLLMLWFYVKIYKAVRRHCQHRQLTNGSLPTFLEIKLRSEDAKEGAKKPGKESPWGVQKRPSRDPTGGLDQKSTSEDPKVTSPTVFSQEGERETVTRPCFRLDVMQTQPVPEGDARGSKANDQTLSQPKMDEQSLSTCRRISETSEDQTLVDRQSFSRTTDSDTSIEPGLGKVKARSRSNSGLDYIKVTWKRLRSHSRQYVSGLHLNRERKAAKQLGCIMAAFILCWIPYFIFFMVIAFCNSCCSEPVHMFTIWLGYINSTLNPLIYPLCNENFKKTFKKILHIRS
Sequence of human histamine H1 receptor (P35367 whole entry): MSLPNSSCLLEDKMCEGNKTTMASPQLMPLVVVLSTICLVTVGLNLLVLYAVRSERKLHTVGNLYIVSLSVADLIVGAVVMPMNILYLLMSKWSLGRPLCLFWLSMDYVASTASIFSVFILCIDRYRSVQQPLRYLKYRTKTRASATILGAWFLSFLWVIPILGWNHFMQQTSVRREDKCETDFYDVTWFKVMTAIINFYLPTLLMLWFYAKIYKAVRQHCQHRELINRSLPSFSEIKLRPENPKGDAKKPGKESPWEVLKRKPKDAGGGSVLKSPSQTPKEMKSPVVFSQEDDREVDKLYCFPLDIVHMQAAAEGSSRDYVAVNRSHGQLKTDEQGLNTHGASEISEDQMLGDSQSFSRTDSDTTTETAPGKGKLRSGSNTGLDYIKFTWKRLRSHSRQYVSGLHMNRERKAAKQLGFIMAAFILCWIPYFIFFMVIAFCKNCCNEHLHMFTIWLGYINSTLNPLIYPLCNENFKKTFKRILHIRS

The compound `CN1CCC(=C2c3ccccc3CCc3sc(Br)cc32)CC1` [Compound 212, 4-(2-Bromo-9,10-dihydro-1-thiabenzo[f]azulen-4-ylidene)-1-methylpiperidine] showed a melting point of 141 to 142 °C.

Consider `COC(=O)Cc1ccc2c(c1)C(=C1CCN(CCSC)CC1)c1sccc1CO2.Cl` [Compound 200, Methyl {4-[1-(2-methylsulfanylethyl)piperidin-4-ylidene]-4,10-dihydro-9-oxa-3-thiabenzo[f]azulen-6-yl}acetate hydrochloride], for which the half-inhibitory concentration (IC50) in data set [1] is 7.83 nM. In addition, the results for the ED50 (in data set [2]; at cerebral H1 receptor) were roughly 0.3 mg/kg and 53.4 mg/kg, respectively. Besides, at cerebral H1 receptor, the “ID50 (mg/kg)/ ED50 (mg/kg)” value came to 178.0.

`CCOC(=O)CCN1CCC(=C2c3cc(CC(=O)OC)ccc3OCc3ccsc32)CC1.Cl` [Compound 173, Ethyl 3-[4-(6-methoxycarbonylmethyl-10H-9-oxa-3-thiabenzo[f]azulen-4-ylidene)piperidin-1-yl]propionate hydrochloride] returned an IC50 in data set [1] of 1.26 nM. Also, the ED50 in data set [2] amounted to 1.43 mg/kg. Besides, on cerebral H1 receptor, the ED50 is 87.1 mg/kg and the “ID50 (mg/kg)/ ED50 (mg/kg)” value is 60.9.

In data set [1], `COC(=O)Cc1ccc2c(c1)C(=C1CCN(CCCC(C)=O)CC1)c1sccc1CO2.Cl` [Compound 169, Methyl {4-[1-(4-oxopentyl)piperidin-4-ylidene]-4,10-dihydro-9-oxa-3-thiabenzo[f]azulen-6-yl}acetate hydrochloride] yielded an IC50 of 8.32 nM. For the same compound, the results for the ED50 (in data set [2]; on cerebral H1 receptor) were 0.241 mg/kg and 12.5 mg/kg, respectively. In addition, the “ID50 (mg/kg)/ ED50 (mg/kg)” value on cerebral H1 receptor stood at 51.9.
